According to US7923561B2 (Hoffmann-La Roche Inc., priority 2006, dated 2011):

Molecular target: T1, recombinant human 5-HT5A receptor (Homo sapiens, UniProt P47898)
T1 construct: expressed in transfected cells; host or cells: HEK-EBNA (Human Embryonic Kidney-EBNA) cells, transient cDNA expression, membranes
Assay: [3H]LSD radioligand binding assay, membranes of HEK-EBNA cells transiently expressing 5-HT5A receptors
Details: [3H]LSD approx. 1 nM, SPA beads, 120 min at room temperature; Ki from IC50 by Cheng-Prussoff equation
Procedure: A [^3H]LSD radioligand binding assay was used to determine the affinity of the compounds for the recombinant human 5-HT5A receptor, in membranes from transiently (cDNA) expressed 5-HT5A receptors in Human Embryonic Kidney-EBNA (HEK-EBNA) cells. Assay buffer consisted of Tris (50 mM) buffer containing 1 mM EGTA, 10 mM MgCl2 (pH 7.4) and 10 μM pargyline. The binding assay was carried out in 96-well-plates in the presence of [^3H]LSD (approximately 1 nM), approximately 2 μg/well of membrane protein, and 0.5 mg of Ysi-poly-1-lysine SPA beads in a final volume of 200 μl of buffer. Non-specific binding was defined using methiothepin 2 μM. Compounds were tested at 10 concentrations. All assays were conducted in duplicate and repeated at least two times. Assay plates were incubated for 120 min at room temperature before centrifugation. Bound ligand was determined using a Packard Topcount scintillation counter. IC50 values were calculated using a non-linear curve fitting program and Ki values calculated using the Cheng-Prussoff equation.

T1 sequence (P47898 whole entry): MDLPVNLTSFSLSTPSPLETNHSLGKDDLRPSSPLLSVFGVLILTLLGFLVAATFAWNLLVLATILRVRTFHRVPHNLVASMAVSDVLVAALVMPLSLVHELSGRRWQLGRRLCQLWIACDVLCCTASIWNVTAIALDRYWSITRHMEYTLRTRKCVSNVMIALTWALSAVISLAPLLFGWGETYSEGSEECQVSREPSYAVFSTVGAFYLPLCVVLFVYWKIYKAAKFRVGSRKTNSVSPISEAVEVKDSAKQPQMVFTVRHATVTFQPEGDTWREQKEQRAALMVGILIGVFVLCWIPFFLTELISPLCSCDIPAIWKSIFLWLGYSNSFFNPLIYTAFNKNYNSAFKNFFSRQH

Ki [nM] | SMILES
10 | O=S(=O)(Nc1ccc(F)cc1)Nc1cccc2nc(N[C@@H]3CCc4ccccc43)ccc12 [Example 86, N-{2-[(1R)-2,3-dihydro-1H-inden-1-ylamino]quinolin-5-yl}-N′-(4-fluorophenyl)sulfamide]
151 | Fc1ccc(CNCc2cccc3nc(N[C@@H]4CCc5ccccc54)ccc23)cc1 [Example 81, {5-[(4-Fluoro-benzylamino)-methyl]-quinolin-2-yl}-(R)-indan-1-yl-amine]
4.66 | COc1cccc2c1C(Nc1ccc3c(NS(=O)(=O)c4cccc5c4ccn5C)cccc3n1)CC2 (racemic) [Example 61, rac-1-Methyl-1H-indole-4-sulfonic acid [2-(7-methoxy-indan-1-ylamino)-quinolin-5-yl]-amide]
3.7 | COc1cccc2c1C(Nc1ccc3c(NCc4cccc5[nH]ccc45)cccc3n1)CC2 (racemic) [Example 57, rac-N5-(1H-Indol-4-ylmethyl)-N2-(7-methoxy-indan-1-yl)-quinoline-2,5-diamine]
15.9 | COc1cccc2c1C(Nc1ccc3c(NCc4cccc5[nH]ccc45)cccc3n1)CCC2 (racemic) [Example 70, Rac-N5-(1H-Indol-4-ylmethyl)-N2-(8-methoxy-1,2,3,4-tetrahydro-naphthalen-1-yl)-quinoline-2,5-diamine]
13.5 | CN(c1cccc2nc(N[C@@H]3CCc4ccccc43)ccc12)S(=O)(=O)c1ccc(F)cc1 [Example 8, 4-Fluoro-N-[2-((R)-indan-1-ylamino)-quinolin-5-yl]-N-methyl-benzenesulfonamide]
23.5 | COc1ccc2c(c1)C(Nc1ccc3c(NCc4cccnc4)cccc3n1)CC2 (racemic) [Example 23, rac-N2-(6-Methoxy-indan-1-yl)-N5-pyridin-3-ylmethyl-quinoline-2,5-diamine]
4.57 | COc1cccc2c1C(Nc1ccc3c(NS(=O)(=O)c4cc(F)cc(F)c4)cccc3n1)CC2 (centres unmarked) [Example 39, 3,5-Difluoro-N-[2-(7-methoxy-indan-1-ylamino)-quinolin-5-yl]-benzenesulfonamide]
25.8 | c1cncc(CNc2cccc3nc(NC4COc5ccccc54)ccc23)c1 (single isomer, unassigned; (+)) [Example 27, (+)-N2-2,3-Dihydro-benzofuran-3-yl-N5-pyridin-3-ylmethyl-quinoline-2,5-diamine]
7.81 | COc1ccc2c(c1)C(Nc1ccc3c(NCc4cc(F)cc(F)c4)cccc3n1)CC2 (single isomer, unassigned; (+)) [Example 35, (+)-N5-(3,5-Difluoro-benzyl)-N2-(6-methoxy-indan-1-yl)-quinoline-2,5-diamine]
10.5 | COc1cccc2c1C(Nc1ccc3c(NCc4cnc[nH]4)cccc3n1)CCC2 (racemic) [Example 67, Rac-N5-(3H-Imidazol-4-ylmethyl)-N2-(8-methoxy-1,2,3,4-tetrahydro-naphthalen-1-yl)-quinoline-2,5-diamine]
4.23 | COc1cccc2c1C(Nc1ccc3c(NS(=O)(=O)c4ccc(F)cc4)cccc3n1)CC2 (racemic) [Example 28, rac-4-Fluoro-N-[2-(7-methoxy-indan-1-ylamino)-quinolin-5-yl]-benzenesulfonamide]
17.8 | COc1ccc2c(c1)C(Nc1ccc3c(NCc4cccnc4)cccc3n1)CC2 (single isomer, unassigned; (+)) [Example 37, (+)-N2-(6-Methoxy-indan-1-yl)-N5-pyridin-3-ylmethyl-quinoline-2,5-diamine]
173 | Cc1ccccc1-c1cccc2nc(N[C@@H]3CCc4ccccc43)ccc12 [Example 65, (R)-Indan-1-yl-(5-o-tolyl-quinolin-2-yl)-amine]
13.6 | c1ccc2c(c1)CC[C@H]2Nc1ccc2c(NCc3cc[nH]n3)cccc2n1 [Example 50, N2-(R)-Indan-1-yl-N5-(1H-pyrazol-3-ylmethyl)-quinoline-2,5-diamine]
2.36 | COc1cccc2c1C(Nc1ccc3c(NCc4c[nH]cn4)cccc3n1)CC2 (centres unmarked) [Example 58, N5-(1H-Imidazol-4-ylmethyl)-N2-(7-methoxy-indan-1-yl)-quinoline-2,5-diamine]
229 | c1ccc(-c2cccc3nc(N[C@@H]4CCc5ccccc54)ccc23)cc1 [Example 63, (R)-Indan-1-yl-(5-phenyl-quinolin-2-yl)-amine]

Ki [nM] | SMILES
320 | c1cncc(-c2cccc3nc(N[C@@H]4CCc5ccccc54)ccc23)c1 [Example 66, (R)-Indan-1-yl-(5-pyridin-3-yl-quinolin-2-yl)-amine]
264 | O=C(c1cc(F)cc(F)c1)c1cccc2nc(N[C@@H]3CCc4ccccc43)ccc12 [Example 100, (3,5-Difluoro-phenyl)-[2-((R)-indan-1-ylamino)-quinolin-5-yl]-methanone]
11.1 | O=S(=O)(Nc1cccc2nc(N[C@@H]3CCc4ccccc43)ccc12)c1cc(F)c(F)c(F)c1 [Example 16, 3,4,5-Trifluoro-N-[2-((R)-indan-1-ylamino)-quinolin-5-yl]-benzenesulfonamide]
60.7 | O=S(=O)(Nc1cccc2nc(NC3CCCc4ccccc43)ccc12)c1cc(F)cc(F)c1 (racemic) [Example 62, rac-3,5-Difluoro-N-[2-(1,2,3,4-tetrahydro-naphthalen-1-ylamino)-quinolin-5-yl]-benzenesulfonamide]
15.8 | COc1ccc2c(c1)C(Nc1ccc3c(NS(=O)(=O)c4ccc(F)cc4)cccc3n1)CC2 (racemic) [Example 21, rac-4-Fluoro-N-[2-(6-methoxy-indan-1-ylamino)-quinolin-5-yl]-benzenesulfonamide]
117 | O=C(c1cccc(F)c1)c1cccc2nc(N[C@@H]3CCc4ccccc43)ccc12 [Example 94, (3-Fluoro-phenyl)-[2-((R)-indan-1-ylamino)-quinolin-5-yl]-methanone]
7.18 | COc1cccc2c1C(Nc1ccc3c(NS(=O)(=O)c4cc(F)c(F)c(F)c4)cccc3n1)CC2 (racemic) [Example 19, rac-3,4,5-Trifluoro-N-[2-(7-methoxy-indan-1-ylamino)-quinolin-5-yl]-benzenesulfonamide]
6.38 | Fc1ccc(Nc2cccc3nc(N[C@@H]4CCc5ccccc54)ccc23)cc1 [Example 77, N5-(4-Fluoro-phenyl)-N2-(R)-indan-1-yl-quinoline-2,5-diamine]
15.3 | COc1cccc2c1C(Nc1ccc3c(NCc4c[nH]nn4)cccc3n1)CCC2 (racemic) [Example 68, Rac-N2-(8-Methoxy-1,2,3,4-tetrahydro-naphthalen-1-yl)-N5-(1H-[1,2,3]triazol-4-ylmethyl)-quinoline-2,5-diamine]
5.13 | c1cncc(CNc2cccc3nc(N[C@@H]4CCc5ccccc54)ccc23)c1 [Example 12, N2-(R)-Indan-1-yl-N5-pyridin-3-ylmethyl-quinoline-2,5-diamine]
17.1 | N=C(c1ccccc1)c1cccc2nc(N[C@@H]3CCc4ccccc43)ccc12 [Example 84, [5-(Imino-phenyl-methyl)-quinolin-2-yl]-(R)-indan-1-yl-amine]
19 | COc1ccc2c(c1)C(Nc1ccc3c(NCc4cccc(S(C)(=O)=O)c4)cccc3n1)CC2 (single isomer, unassigned; (+)) [Example 30, (+)-N5-(3-Methanesulfonyl-benzyl)-N2-(6-methoxy-indan-1-yl)-quinoline-2,5-diamine]
9.72 | COc1ccc2c(c1)C(Nc1ccc3c(NCc4cc(F)cc(F)c4)cccc3n1)CC2 (racemic) [Example 29, rac-N5-(3,5-Difluoro-benzyl)-N2-(6-methoxy-indan-1-yl)-quinoline-2,5-diamine]
5.61 | c1ccc2c(c1)CC[C@H]2Nc1ccc2c(Nc3cccc4cc[nH]c34)cccc2n1 [Example 69, N2-(R)-Indan-1-yl-N5-(1H-indol-7-yl)-quinoline-2,5-diamine]
197 | O=S(=O)(Nc1cccc2nc(NC3CC4CCC3C4)ccc12)c1ccc(F)cc1 (racemic) [Example 60, rac-exo-N-[2-(Bicyclo[2.2.1]hept-2-ylamino)-quinolin-5-yl]-4-fluoro-benzenesulfonamide]
11.5 | O=C(c1ccc(F)cc1)c1cccc2nc(N[C@@H]3CCc4ccccc43)ccc12 [Example 83, (4-Fluoro-phenyl)-[2-((R)-indan-1-ylamino)-quinolin-5-yl]-methanone]
1.85 | Fc1cc(F)cc(CNc2cccc3nc(N[C@@H]4CCc5ccccc54)ccc23)c1 [Example 6, N5-(3,5-Difluoro-benzyl)-N2-(R)-indan-1-yl-quinoline-2,5-diamine]

SMILES | Ki [nM]
COc1ccc(C(=NO)c2cccc3nc(N[C@@H]4CCc5ccccc54)ccc23)cc1 [Example 95, [2-((R)-Indan-1-ylamino)-(4-methoxy-phenyl)-quinolin-5-yl]-methanone oxime] | 4.11
Cc1ccc(C(=O)c2cccc3nc(N[C@@H]4CCc5ccccc54)ccc23)cc1 [Example 97, [2-((R)-Indan-1-ylamino)-(4-methyl-phenyl)-quinolin-5-yl]-methanone] | 37.4
Fc1cc(F)cc(CNc2cccc3nc(NC4COc5ccccc54)ccc23)c1 (single isomer, unassigned; (+)) [Example 32, (+)-N5-(3,5-Difluoro-benzyl)-2,3-dihydro-benzofuran-3-yl-quinoline-2,5-diamine] | 12.7
COc1ccc(C(=O)c2cccc3nc(N[C@@H]4CCc5ccccc54)ccc23)cc1 [Example 93, [2-((R)-Indan-1-ylamino)-(4-methoxy-phenyl)-quinolin-5-yl]-methanone] | 15.8
